Results: US20210084902A1, “FUNGICIDAL MIXTURE COMPRISING SUBSTITUTED 3-PHENYL-5-(TRIFLUOROMETHYL)-1,2,4-OXADIAZOLES” (BASF SE, priority 2017, published 2021)
Where two headings read alike, the source gives them in different places.

How the values were obtained:
Assay type in all cases: cell-based
Botrytis cinerea = experiment: Fungicidal activity against Botrytis cinerea, micro titer plate (MTP) test; details: Botrytis cinerea, 168 h, read-out: Observed efficacy
[1] = system: Colletotrichum orbiculare; experiment: Fungicidal activity against Colletotrichum orbiculare in the microtiterplate test; details: for inhibition of growth at 6.3e-05 ppm: 0.000063 ppm
Leptosphaeria nodorum = experiment: Fungicidal activity against Leptosphaeria nodorum, microtiter plate (MTP) test
Pyricularia oryzae = experiment: microbe, parasite or virus in culture; details: Pyricularia oryzae, 168 h, read-out: Observed efficacy
Septoria tritici = experiment: Fungicidal activity against Septoria tritici, micro titer plate (MTP) test; details: Zymoseptoria tritici, 168 h, read-out: Observed efficacy
[2] = Colletotrichum orbiculare, read-out: Observed efficacy
[3] = Parastagonospora nodorum, 168 h, 0.063 ppm, read-out: Observed efficacy
[4] = Colletotrichum orbiculare, 0.001 ppm, read-out: Observed efficacy
[5] = Colletotrichum orbiculare, 0.016 ppm, read-out: Observed efficacy
[6] = Parastagonospora nodorum, 168 h, 0.004 ppm, read-out: Observed efficacy
[7] = Parastagonospora nodorum, 168 h, read-out: Observed efficacy
[8] = Parastagonospora nodorum, 168 h, 0.25 ppm, read-out: Observed efficacy
[9] = Table V.4, component B alone, 0.063 ppm
[10] = Table V.4, component B alone, 0.25 ppm
[11] = Colletotrichum orbiculare, 0.25 ppm, read-out: Observed efficacy

Structure (SMILES): CNC(=O)C(=N/OC)/C(C)=C\COc1ccn(-c2ccc(Cl)cc2Cl)n1 [A.1.34, (Z,2E)-5-[1-(2,4-dichlorophenyl)pyrazol-3-yl]-oxy-2-methoxyimino-N,3-dimethyl-pent-3-enamide]
- inhibition of growth at 16 ppm (Botrytis cinerea; component B alone): 2%
- inhibition of growth at 63 ppm (Botrytis cinerea; component B alone): 18%
- inhibition of growth at 6.3e-05 ppm [1, 2]: 37%
- inhibition of growth at […] (Leptosphaeria nodorum; [3]): 45%

Structure (SMILES): COC(=O)N(OC)c1ccccc1COc1ccn(-c2ccc(Cl)cc2)n1 [Pyraclostrobin, pyraclostrobin]
- inhibition of growth at 0.004 ppm (Botrytis cinerea; component B alone, 0.004 ppm): 0%
- inhibition of growth at […] (Botrytis cinerea; component B alone, 0.016 ppm): 14%
- inhibition of growth at 0.001 ppm [1, 4]: 32%
- inhibition of growth at […] [1, 5]: 60%
- inhibition of growth at […] (Leptosphaeria nodorum; Parastagonospora nodorum, 168 h, 0.00025 ppm, read-out: Observed efficacy): 22%
- inhibition of growth at 0.004 ppm (Leptosphaeria nodorum; [6]): 59%
- inhibition of growth at 0.001 ppm (Pyricularia oryzae): 46%
- inhibition of growth at 6.3e-05 ppm (Septoria tritici; Table V.4, component B alone, 0.000063 ppm): 21%

Structure (SMILES): COc1ccc(C(=CC(=O)N2CCOCC2)c2ccc(Cl)cc2)cc1OC [Dimethomorph, dimethomorph]
- inhibition of growth at 4 ppm [1, 2]: 21%
- inhibition of growth at 4 ppm (Leptosphaeria nodorum; [7]): 41%
- inhibition of growth at 1 ppm (Pyricularia oryzae): 4%
- inhibition of growth at 4 ppm (Pyricularia oryzae): 8%
- inhibition of growth at 4 ppm (Septoria tritici; Table V.4, component B alone): 11%

Structure (SMILES): CNC(=S)c1ccc(-c2noc(C(F)(F)F)n2)cc1 [I.M, N-methyl-4-[5-(trifluoromethyl)-1,2,4-oxadiazol-3-yl]benzenecarbothioamide]
- inhibition of growth at […] (Botrytis cinerea; I.M alone, 0.063 ppm): 1%
- inhibition of growth at […] (Botrytis cinerea; I.M alone, 0.25 ppm): 2%
- inhibition of growth at 1 ppm (Botrytis cinerea; I.M alone): 0%
- inhibition of growth at 4 ppm (Botrytis cinerea; I.M alone): 15%
- inhibition of growth at 6.3e-05 ppm [1, 2]: 2%
- inhibition of growth at […] ([1]; Colletotrichum orbiculare, 0.00025 ppm, read-out: Observed efficacy): 2%
- inhibition of growth at 0.001 ppm [1, 4]: 1%
- inhibition of growth at 0.004 ppm ([1]; Colletotrichum orbiculare, 0.004 ppm, read-out: Observed efficacy): 1%
- inhibition of growth at […] [1, 5]: 7%
- inhibition of growth at 0.004 ppm (Leptosphaeria nodorum; [6]): 6%
- inhibition of growth at […] (Leptosphaeria nodorum; Parastagonospora nodorum, 168 h, 0.016 ppm, read-out: Observed efficacy): 5%
- inhibition of growth at […] (Leptosphaeria nodorum; [8]): 7%
- inhibition of growth at 1 ppm (Leptosphaeria nodorum; [7]): 18%
- inhibition of growth at 4 ppm (Leptosphaeria nodorum; [7]): 52%
- inhibition of growth at 1 ppm (Pyricularia oryzae): 9%
- inhibition of growth at 4 ppm (Pyricularia oryzae): 32%
- inhibition of growth at […] (Septoria tritici; Table V.5, I.M alone, 0.063 ppm): 14%
- inhibition of growth at […] (Septoria tritici; Table V.5, I.M alone, 0.25 ppm): 23%
- inhibition of growth at 1 ppm (Septoria tritici; Table V.5, I.M alone): 35%
- inhibition of growth at 4 ppm (Septoria tritici; Table V.5, I.M alone): 42%

Structure (SMILES): CO/N=C(/C1=NOCCO1)c1ccccc1Oc1ncnc(Oc2ccccc2Cl)c1F [Fluoxastrobin, fluoxastrobin]
- inhibition of growth at […] ([1]; Colletotrichum orbiculare, 0.063 ppm, read-out: Observed efficacy): 51%
- inhibition of growth at […] (Leptosphaeria nodorum; [8]): 38%
- inhibition of growth at […] (Septoria tritici; [9]): 3%
- inhibition of growth at […] (Septoria tritici; [10]): 32%

Structure (SMILES): CCN(C)C=Nc1cc(Br)c(OC2CCC(C(C)C)CC2)nc1C (stereo not drawn) [K.1.32, N′-[5-bromo-6-(4-isopropylcyclohexoxy)-2-methyl-3-pyridyl]-N-ethyl-N-methyl-formamidine]
- inhibition of growth at […] [1, 11]: 26%
- inhibition of growth at […] (Leptosphaeria nodorum; [8]): 40%
- inhibition of growth at […] (Septoria tritici; [10]): 0%
- inhibition of growth at 1 ppm (Septoria tritici; Table V.4, component B alone): 0%

Structure (SMILES): Cn1nc(C(F)F)c(C(=O)Nc2ccccc2Oc2ccc(C(F)(F)F)cc2Cl)c1F [A.3.29, N-[2-[2-chloro-4-(trifluoromethyl)phenoxy]phenyl]-3-(difluoromethyl)-5-fluoro-1-methyl-pyrazole-4-carboxamide]
- inhibition of growth at […] (Botrytis cinerea; component B alone, 0.25 ppm): 55%
- inhibition of growth at […] [1, 11]: 4%
- inhibition of growth at 1 ppm [1, 2]: 11%
- inhibition of growth at 1 ppm (Pyricularia oryzae): 14%
- inhibition of growth at […] (Septoria tritici; [9]): 68%

Structure (SMILES): CC1COC(Cn2cncn2)(c2ccc(Oc3ccc(Cl)cc3)cc2Cl)O1 (stereo not drawn) [Difenoconazol, difenoconazole]
- inhibition of growth at […] [1, 5]: 1%
- inhibition of growth at […] [1, 11]: 14%
- inhibition of growth at […] (Leptosphaeria nodorum; [3]): 41%
- inhibition of growth at […] (Septoria tritici; Table V.4, component B alone, 0.016 ppm): 4%

Structure (SMILES): O=C1c2ccccc2C(=O)N1SC(Cl)(Cl)Cl [Folpet, folpet]
- inhibition of growth at 1 ppm (Botrytis cinerea; component B alone): 13%
- inhibition of growth at 1 ppm [1, 2]: 20%
- inhibition of growth at 1 ppm (Leptosphaeria nodorum; [7]): 40%
- inhibition of growth at 1 ppm (Pyricularia oryzae): 14%
- inhibition of growth at 1 ppm (Septoria tritici; Table V.4, component B alone): 70%

Structure (SMILES): O=C(Nc1ccccc1F)c1ccc(-c2noc(C(F)(F)F)n2)cc1 [I.E, N-(2-fluorophenyl)-4-[5-(trifluoromethyl)-1,2,4-oxadiazol-3-yl]benzamide]
- inhibition of growth at […] (Botrytis cinerea; I.E alone, 0.063 ppm): 2%
- inhibition of growth at 1 ppm (Botrytis cinerea; I.E alone): 2%
- inhibition of growth at 4 ppm (Botrytis cinerea; I.E alone): 2%
- inhibition of growth at 16 ppm (Botrytis cinerea; I.E alone): 3%
- inhibition of growth at 63 ppm (Botrytis cinerea; I.E alone): 16%
- inhibition of growth at […] [1, 11]: 4%
- inhibition of growth at 1 ppm [1, 2]: 4%
- inhibition of growth at 4 ppm [1, 2]: 11%
- inhibition of growth at 16 ppm ([1]; Colletotrichum orbiculare, 16 ppm, read-out: Observed efficacy): 52%
- inhibition of growth at 16 ppm (Leptosphaeria nodorum; Parastagonospora nodorum, 168 h, 16 ppm, read-out: Observed efficacy): 18%
- inhibition of growth at 63 ppm (Leptosphaeria nodorum; Parastagonospora nodorum, 168 h, 63 ppm, read-out: Observed efficacy): 22%
- inhibition of growth at 1 ppm (Pyricularia oryzae): 5%
- inhibition of growth at 4 ppm (Pyricularia oryzae): 5%
- inhibition of growth at 16 ppm (Pyricularia oryzae): 6%
- inhibition of growth at 63 ppm (Pyricularia oryzae): 9%
- inhibition of growth at […] (Septoria tritici; Table V.6, I.E alone, 0.25 ppm): 13%
- inhibition of growth at 4 ppm (Septoria tritici; Table V.6, I.E alone): 7%
- inhibition of growth at 16 ppm (Septoria tritici; Table V.6, I.E alone): 13%
- inhibition of growth at 63 ppm (Septoria tritici; Table V.6, I.E alone, 63 ppm): 14%

Structure (SMILES): CNC(=O)/C(=N/OC)c1ccccc1Oc1ccccc1 [Metominostrobin, metominostrobin]
- inhibition of growth at 1 ppm (Leptosphaeria nodorum; [7]): 43%
- inhibition of growth at 1 ppm (Pyricularia oryzae): 59%
- inhibition of growth at 1 ppm (Septoria tritici; Table V.4, component B alone): 46%

Structure (SMILES): N#Cc1c(Cl)c(Cl)c(Cl)c(C#N)c1Cl [Chlorothalonil, chlorothalonil]
- inhibition of growth at 1 ppm (Botrytis cinerea; component B alone): 22%
- inhibition of growth at 1 ppm (Leptosphaeria nodorum; [7]): 72%
- inhibition of growth at […] (Septoria tritici; [10]): 25%

Structure (SMILES): Cc1cc(C2CC2)nc(Nc2ccccc2)n1 [Cyprodinil, cyprodinil]
- inhibition of growth at 1 ppm (Botrytis cinerea; component B alone): 66%
- inhibition of growth at 1 ppm [1, 2]: 35%
- inhibition of growth at 4 ppm [1, 2]: 38%
- inhibition of growth at 0.004 ppm (Leptosphaeria nodorum; [6]): 71%
- inhibition of growth at 1 ppm (Pyricularia oryzae): 56%

Structure (SMILES): CC(Cc1ccc(C(C)(C)C)cc1)CN1C[C@@H](C)O[C@@H](C)C1 (stereo partly drawn) [Fenpropimorph, fenpropimorph]
- inhibition of growth at […] (Botrytis cinerea; component B alone, 0.25 ppm): 29%
- inhibition of growth at […] [1, 11]: 5%
- inhibition of growth at 1 ppm [1, 2]: 19%
- inhibition of growth at 1 ppm (Pyricularia oryzae): 8%
- inhibition of growth at […] (Septoria tritici; [10]): 0%

Structure (SMILES): CC(O)(Cn1cncn1)c1ccc(Oc2ccc(Cl)cc2)cc1C(F)(F)F (stereo not drawn) [Mefentrifluconazol, mefentrifluconazole]
- Observed efficacy ([1]; 0.001 ppm): 1
- Observed efficacy (Leptosphaeria nodorum; 0.004 ppm): 53

Structure (SMILES): CCCCNC(=O)n1c(NC(=O)OC)nc2ccccc21 [Benomyl, benomyl]
- inhibition of growth at […] (Botrytis cinerea; component B alone, 0.016 ppm): 8%
- inhibition of growth at 9 ppm ([1]; Colletotrichum orbiculare, 9 ppm, read-out: Observed efficacy): 38%
- inhibition of growth at 1 ppm (Leptosphaeria nodorum; [7]): 15%

Structure (SMILES): Cc1ccc(-c2c(Cl)nc(C#N)n2S(=O)(=O)N(C)C)cc1 [Cyazofamid, cyazofamid]
- inhibition of growth at […] (Leptosphaeria nodorum; [8]): 6%
- inhibition of growth at 4 ppm (Pyricularia oryzae): 13%
- inhibition of growth at 4 ppm (Septoria tritici; Table V.4, component B alone): 2%
- inhibition of growth at 16 ppm (Septoria tritici; Table V.4, component B alone): 8%

Structure (SMILES): CC(Cc1ccc(C(C)(C)C)cc1)CN1CCCCC1 (stereo not drawn) [Fenpropidin, fenpropidin]
- inhibition of growth at 4 ppm (Botrytis cinerea; component B alone): 28%
- inhibition of growth at 1 ppm [1, 2]: 9%
- inhibition of growth at 4 ppm [1, 2]: 47%
- inhibition of growth at 1 ppm (Leptosphaeria nodorum; [7]): 38%
- inhibition of growth at 1 ppm (Septoria tritici; Table V.4, component B alone): 1%
